Holding throughout (assay): NCI anticancer screen, dose series, 48 h
Assay [1] concerns NCI-H226 lung.
Assay [2] relates to SK-MEL-28 melanoma.
In assay [3] the test system is NCI/ADR-RES ovarian.
In assay [4] the test system is OVCAR-8 ovarian.
Assay [5] deals with OVCAR-5 ovarian.
The subject of assay [6] is MALME-3M melanoma.
Assay [7] relates to DU-145 prostate.
Assay [8] relates to 786-0 renal.

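Results reflect a 48-hour exposure of cells in 96-well plates to compound at five concentrations. Abbreviation: GI50, concentration required for 50% inhibition of growth. TGI denotes the concentration required for complete inhibition of growth.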 Where only a bound is given, the exact number is not on record here.

On to `COc1cc2ncnc(Nc3cccc(Cl)c3F)c2cc1OC(=O)N1CCN(C)C[C@H]1C`, for which the GI50 in assay [1] was > 45.9 µM; in assay [2], > 42.2 µM; in assay [3] it was > 36.3 µM; in assay [4], > 40.9 µM; in assay [5], > 32.7 µM; in assay [6] it was > 39.5 µM. Further, the GI50 in assay [7] is 7.35 µM; in assay [8], > 34.2 µM. The TGI in assay [1] is > 75.6 µM; in assay [2], > 65.5 µM; in assay [3], > 75.2 µM; in assay [4] it was > 77.9 µM; in assay [5], > 90.8 µM; in assay [6], > 60.6 µM. Further, the TGI is > 100 µM in assay [7] and > 53.3 µM in assay [8].

For the molecule `Cn1nc(C(F)(F)F)cc1-c1c[nH]c(OCc2ccc(Cl)cc2)c(-c2ccc(Cl)c(C(F)(F)F)c2)c1=O`, the GI50 in assay [1] was 1.26 µM; in assay [2], 1.07 µM; in assay [3], 1.42 µM; in assay [4], 1.19 µM; in assay [5], 1.71 µM; in assay [6] it was 1.09 µM. Besides, the figures for the GI50 in assay [7] and in assay [8] were 1.64 µM and 1.25 µM, respectively. The TGI in assay [1] was 4.27 µM; in assay [2] it was 3.97 µM; in assay [3], > 50 µM; in assay [4], > 50 µM; in assay [5], > 32.8 µM; in assay [6], 3.07 µM. The TGI was > 50 µM in assay [7] and 4.37 µM in assay [8].

In the case of `Cn1cc(C2=C(c3c4n(c5ccccc35)CCC(CN)C4)C(=O)NC2=O)c2ccccc21` (centres undefined), the GI50 in assay [1] is 3.34 µM; in assay [2] it was 3.82 µM; in assay [3], 14.9 µM; in assay [4], 3.77 µM; in assay [5], 2.94 µM; in assay [6], 2.75 µM. Moreover, the GI50 in assay [7] was 3.63 µM; in assay [8] it was 4.25 µM. Further, the TGI in assay [1] worked out at 11.1 µM; in assay [2], 7.31 µM; in assay [3], 25 µM; in assay [4] it was 8.92 µM; in assay [5], 7.15 µM; in assay [6], 6.07 µM. For the same molecule, the TGI in assay [7] amounted to 7.02 µM; in assay [8] it was 8.38 µM.

Consider `C=C1C(=O)O[C@H]2[C@H]1CC/C(C=Nc1c(N)cc(C(F)(F)F)cc1C(F)(F)F)=C\CC[C@@]1(C)O[C@@H]21`, for which the GI50 in assay [1] was 1.43 µM; in assay [2], 1.87 µM; in assay [3], 2 µM; in assay [4], 1.79 µM; in assay [5] it was 1.87 µM; in assay [6], 2 µM. Besides, the GI50 in assay [7] was 1.63 µM; in assay [8], 2.04 µM. Besides, the TGI in assay [1] was found to be 4.11 µM; in assay [2] it was 3.83 µM; in assay [3] it was 5.75 µM; in assay [4] it was 9.85 µM; in assay [5], 4.59 µM; in assay [6], 3.95 µM. For the same molecule, the TGI is 3.09 µM in assay [7] and 4.11 µM in assay [8].

As to `N#Cc1c(N2CCOCC2)nc(=S)[nH]c1-c1ccccc1`, the GI50 was 14.3 µM in assay [1]; 20.5 µM in assay [2]; 53.4 µM in assay [3]; 39.2 µM in assay [4]; 18.3 µM in assay [5]; 5.19 µM in assay [6]. The GI50 was 31 µM in assay [7] and 14.1 µM in assay [8]. The TGI in assay [1] is > 100 µM; in assay [2], > 100 µM; in assay [3] it was > 100 µM; in assay [4], > 100 µM; in assay [5], > 100 µM; in assay [6], 58.9 µM. The TGI in assay [7] and in assay [8] was > 100 µM throughout.

As to `CN(C)CCCCC(C(=O)CBr)(c1ccccc1)c1ccccc1`, the GI50 in assay [1] is 2.38 µM; in assay [2] it was 1.77 µM; in assay [3], 2.85 µM; in assay [4] it was 2.52 µM; in assay [5] it was 3.06 µM; in assay [6] it was 1.44 µM. For the same molecule, the GI50 is 1.66 µM in assay [7] and 2.12 µM in assay [8]. The TGI in assay [1] came out at 8.39 µM; in assay [2] it was 3.49 µM; in assay [3], 10.1 µM; in assay [4] it was 8.48 µM; in assay [5] it was 10.9 µM; in assay [6] it was 3.62 µM. The values for the TGI in assay [7] and in assay [8] were 3.63 µM and 4.37 µM, respectively.

For the molecule `COc1cc(/C(=C2/O[C@@H]([C@H]3COC(C)(C)O3)[C@H]3OC(C)(C)O[C@@H]23)c2ccc3ccccc3c2)cc(OC)c1OC`, the GI50 in assay [1] was 3.49 µM; in assay [2], 2.86 µM; in assay [3] it was 4.26 µM; in assay [4], 3.89 µM; in assay [5], 14 µM; in assay [6] it was 2.07 µM. Further, the GI50 in assay [7] is 4.33 µM; in assay [8], 2.3 µM. The TGI in assay [1] was 60 µM; in assay [2], 9.65 µM; in assay [3], 22.3 µM; in assay [4] it was > 100 µM; in assay [5], > 100 µM; in assay [6], 5.59 µM. In addition, the results for the TGI in assay [7] and in assay [8] were > 100 µM and 4.47 µM, respectively.

Regarding `CCOC(=O)c1cc(C(=O)c2cc(OC)c(OC)c(OC)c2)n2c1ccc1ccccc12`, the GI50 was 1.23 µM in assay [1]; 1.45 µM in assay [2]; 0.172 µM in assay [3]; 0.489 µM in assay [4]; 0.539 µM in assay [5]; 0.634 µM in assay [6]. For the same molecule, the GI50 was 0.372 µM in assay [7] and 0.693 µM in assay [8]. Moreover, the TGI in assay [1], in assay [2], in assay [3], in assay [4], in assay [5] and in assay [6] was > 100 µM throughout. The TGI in assay [7] and in assay [8] was > 100 µM throughout.

Take `COc1cccc(/C=N/NC(=O)c2ccccc2N2CCCC2)c1O`: the GI50 in assay [1] is 1.84 µM; in assay [2], 5.27 µM; in assay [3], 2.8 µM; in assay [4], 5.49 µM; in assay [5], 9.72 µM; in assay [6] it was 15 µM. In addition, the GI50 was 8.96 µM in assay [7] and 3.58 µM in assay [8]. Also, the TGI in assay [1] is 9.06 µM; in assay [2], > 100 µM; in assay [3], > 100 µM; in assay [4], > 100 µM; in assay [5], > 100 µM; in assay [6] it was 88.1 µM. For the same molecule, the TGI in assay [7] and in assay [8] was > 100 µM each time.

For the origin of these results see PubChem BioAssay (NCI).
